Assay results from patent US8465724B2, “Multi-drug ligand conjugates” (Endocyte, Inc., priority 2005, dated 2013).
“Also recorded” adds a separate entry of the source.

Key:
[1] = molecular target: T1, folate receptors (FRs) on KB cells (Homo sapiens, UniProt P15328); assay: Relative affinity assay (displacement of 3H-folic acid); type: binding; details: relative to folic acid, set to 1, 100 nM 3H-folic acid
T1 construct: FR-positive KB cells were heavily seeded into 24-well cell culture plates; endogenous in cells; host or cells: KB cells
Experimental: The affinity for folate receptors (FRs) relative to folate was determined according to a previously described method (Westerhof, G. R., J. H. Schomagel, et al. (1995) Mol. Pharm. 48: 459-471) with slight modification. Briefly, FR-positive KB cells were heavily seeded into 24-well cell culture plates and allowed to adhere to the plastic for 18 h. Spent incubation media was replaced in designated wells with folate-free RPMI (FFRPMI) supplemented with 100 nM ^3H-folic acid in the absence and presence of increasing concentrations of test article or folic acid. Cells were incubated for 60 min at 37° C. and then rinsed 3 times with PBS, pH 7.4. Five hundred microliters of 1% SDS in PBS, pH 7.4, were added per well. Cell lysates were then collected and added to individual vials containing 5 mL of scintillation cocktail, and then counted for radioactivity. Negative control tubes contained only the ^3H-folic acid in FFRPMI (no competitor). Positive control tubes contained a final concentration of 1 mM folic acid, and CPMs measured in these samples (representing non-specific binding of label) were subtracted from all samples.

[2] = tested on: folate receptor negative 4T1 tumors; assay: 4T-1 tumor volume assay; type: in vivo, Balb/c mice; details: 2 μmol/kg TIW for two weeks
Experimental: Six to seven week-old mice (female Balb/c strain) were obtained from Harlan, Inc., Indianapolis, Ind. The mice were maintained on Harlan's folate-free chow for a total of three weeks prior to the onset of and during this experiment. Folate receptor-negative 4T-1 tumor cells (1×10^6 cells per animal) were inoculated in the subcutis of the right axilla. […] Tumor growth was measured using calipers at 2-day or 3-day intervals in each treatment group. Tumor volumes were calculated using the equation V=a×b^2/2, where “a” is the length of the tumor and “b” is the width expressed in millimeters.

[3] = Weight determination, nude mice; type: in vivo, nu/nu mice
Experimental: (§1) The percentage weight change of the mice was determined in mice (5 mice/group) on the indicated days post-tumor inoculation (PTI) as shown in the graph for the samples described in the related tumor volume assay.

[4] = Weight determination, Balb/c mice (M109 study); type: in vivo; details: 1 μmol/kg and 2 μmol/kg TIW (6 doses)
Experimental: as §1

[5] = tested on: folate receptor-positive KB cells; type: cell-based, human
Experimental: The compounds described herein were evaluated using an in vitro cytotoxicity assay that predicts the ability of the drug to inhibit the growth of folate receptor-positive KB cells. The compounds were comprised of folate linked to a respective chemotherapeutic drug, as prepared according to the protocols described herein. The KB cells were exposed for up to 7 h at 37° C. to the indicated concentrations of folate-drug conjugate in the absence or presence of at least a 100-fold excess of folic acid. The cells were then rinsed once with fresh culture medium and incubated in fresh culture medium for 72 hours at 37° C. Cell viability was assessed using a ^3H-thymidine incorporation assay.
As shown in the figures herein, dose-dependent cytotoxicity was measurable, and in most cases, the IC50 values (concentration of drug conjugate required to reduce ^3H-thymidine incorporation into newly synthesized DNA by 50%) were in the low nanomolar range.

FR-positive M109 tumors = assay: Inhibition of tumor growth in mice, M109; type: in vivo, Balb/c mice
Experimental: The anti-tumor activity of the compounds described herein, when administered intravenously (i.v.) to tumor-bearing animals, was evaluated in Balb/c mice bearing subcutaneous M109 tumors. […] Tumor growth was measured using calipers at 2-day or 3-day intervals in each treatment group. Tumor volumes were calculated using the equation V=a×b^2/2, where “a” is the length of the tumor and “b” is the width expressed in millimeters.

[6] = tested on: FR-positive s.c. human xenograft KB tumors; assay: Inhibition of tumor growth in mice, KB; type: in vivo, nu/nu mice
Experimental: The anti-tumor activity of the compounds described herein, when administered intravenously (i.v.) to tumor-bearing animals, was evaluated in nu/nu mice bearing subcutaneous KB tumors. […] Tumor growth was measured using calipers at 2-day or 3-day intervals in each treatment group. Tumor volumes were calculated using the equation V=a×b^2/2, where “a” is the length of the tumor and “b” is the width expressed in millimeters.

[7] = tested on: folate receptor positive human tumors; type: in vivo, nude mice; details: 2 μmol/kg TIW, five animals
[8] = tested on: KB, 4T-1c12, and ID8-c115 tumor cell lines; assay: In vitro cytotoxic activity on three tumor cell lines; details: 4T-1c12, ID8-c115, plus excess folic acid
[9] = 1 μmol/kg TIW for 2 weeks plus 40 μmol/kg EC20 (rhenium complex)
[10] = 1 μmol/kg TIW for 2 weeks, without EC20

T1 sequence (P15328 25-234): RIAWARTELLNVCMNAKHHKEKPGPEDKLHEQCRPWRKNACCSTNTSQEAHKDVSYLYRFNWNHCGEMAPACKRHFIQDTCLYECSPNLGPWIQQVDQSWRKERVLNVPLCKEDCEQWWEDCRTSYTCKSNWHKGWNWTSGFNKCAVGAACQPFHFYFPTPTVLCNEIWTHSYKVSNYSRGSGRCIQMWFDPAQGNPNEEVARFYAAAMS

Row | SMILES | relative binding affinity at folic acid receptors [1] | activity on 4T1 tumors [2] | weight of nu/nu (nude) mice, with EC20 [3, 9] | weight of nu/nu (nude) mice [3, 10] | weight of nude mice ([3]; 2 μmol/kg TIW, FIG. 11) | weight of Balb/c mice [4] | potency of Example 11 relative to Example 9 ([5]; 3H-thymidine incorporation IC50 compared) | IC50 ([5]; KB cells, without excess folic acid, read-out: IC50, 3H-thymidine incorporation) [nM] | effect of excess folic acid on activity in 3H-thymidine incorporation ([5]; with excess folic acid) | growth of M109 tumors (FR-positive M109 tumors; 1 μmol/kg and 2 μmol/kg TIW (6 doses)) | growth of M109 tumors, higher dose (FR-positive M109 tumors; 2 μmol/kg TIW (6 doses), also after dosing ended on day 20) | complete responses, M109 tumors (FR-positive M109 tumors; 2 μmol/kg TIW (6 doses), five animals) | complete responses, KB tumors ([6]; 1 μmol/kg TIW for 2 weeks (6 doses), alone) | complete responses, KB tumors, with EC20 [6, 9] | growth of KB tumors, with EC20 [6, 9] | growth of KB tumors [6, 10] | activity on established s.c. KB tumors versus controls ([6]; 1 μmol/kg TIW for two weeks, FIG. 13) | activity on large s.c. KB tumors ([6]; 2 μmol/kg TIW, 2 weeks, start at 250, 500 or 750 mm^3) | complete responses, FR-positive human tumors [7] | in vitro cytotoxic activity with excess folic acid [8]
1 | CC[C@]1(O)C[C@@H]2CN(CCc3c([nH]c4ccccc34)[C@@](C(=O)OC)(c3cc4c(cc3OC)N(C)[C@H]3[C@@](O)(C(=O)NNC(=O)OCCSSC[C@H](NC(=O)[C@H](CN)NC(=O)[C@H](CC(=O)O)NC(=O)[C@H](CC(=O)O)NC(=O)[C@H](CC(=O)O)NC(=O)CC[C@H](NC(=O)c5ccc(NCc6cnc7nc(N)[nH]c(=O)c7n6)cc5)C(=O)O)C(=O)O)[C@H](O)[C@]5(CC)C=CCN6CC[C@]43[C@@H]65)C2)C1 [Example 9] | 0.24 |  |  |  |  |  |  |  |  |  |  |  |  |  |  |  |  |  |  | 
2 | CC[C@]1(O)CC2CN(CCc3c([nH]c4ccccc34)[C@@](C(=O)OC)(c3cc4c(cc3OC)N(C)[C@H]3[C@@](O)(C(=O)NNC(=O)OCCSSC[C@H](NC(=O)[C@H](CNC(=O)CCSSCCNC5=C(C)C(=O)C6=C(C5=O)[C@@H](COC(N)=O)[C@@]5(OC)[C@H]7N[C@H]7CN65)NC(=O)[C@H](CC(=O)O)NC(=O)[C@H](CC(=O)O)NC(=O)[C@H](CC(=O)O)NC(=O)CC[C@H](NC(=O)c5ccc(NCc6cnc7nc(N)[nH]c(=O)c7n6)cc5)C(=O)O)C(=O)O)[C@H](O)[C@]5(CC)C=CCN6CC[C@]43[C@@H]65)C2)C1 (stereo partly shown) [Example 11] | 0.21 | does not have any effect on the tumors compared to controls | absence of an effect | did not affect the weight of the test animal significantly from controls; also recorded: absence of an effect | did not significantly affect the weight of the test animals; also recorded: absence of an effect | little effect on the weight of the mice; also recorded: absence of an effect | more than 10 fold | 5 | folic acid competes with the conjugates for binding to the folate receptor | inhibited the growth of solid tumors | strong inhibition of tumor growth | all five animals showed a complete response | 5/5 | 0/5 | inhibitory effect is prevented (competed against) by the EC20 rhenium complex | inhibits the growth of solid tumors | superior to controls | inhibits the growth of large tumors and gives a complete response in test animals | complete response in five out of five test animals | reduced in the presence of excess folic acid
3 | Nc1nc2ncc(CNc3ccc(C(=O)N[C@@H](CCC(=O)O)C(=O)O)cc3)nc2c(=O)[nH]1 [folic acid, reference compound] | 1.0 |  |  |  |  |  |  |  |  |  |  |  |  |  |  |  |  |  |  | 
